How the values were obtained:
human P2X7 = target: T1, human P2X7 (UniProt Q99572); assay: Intracellular Calcium Flux (FLIPR) Assay; assay type: cell-based
T1 sequence (Q99572 1-595): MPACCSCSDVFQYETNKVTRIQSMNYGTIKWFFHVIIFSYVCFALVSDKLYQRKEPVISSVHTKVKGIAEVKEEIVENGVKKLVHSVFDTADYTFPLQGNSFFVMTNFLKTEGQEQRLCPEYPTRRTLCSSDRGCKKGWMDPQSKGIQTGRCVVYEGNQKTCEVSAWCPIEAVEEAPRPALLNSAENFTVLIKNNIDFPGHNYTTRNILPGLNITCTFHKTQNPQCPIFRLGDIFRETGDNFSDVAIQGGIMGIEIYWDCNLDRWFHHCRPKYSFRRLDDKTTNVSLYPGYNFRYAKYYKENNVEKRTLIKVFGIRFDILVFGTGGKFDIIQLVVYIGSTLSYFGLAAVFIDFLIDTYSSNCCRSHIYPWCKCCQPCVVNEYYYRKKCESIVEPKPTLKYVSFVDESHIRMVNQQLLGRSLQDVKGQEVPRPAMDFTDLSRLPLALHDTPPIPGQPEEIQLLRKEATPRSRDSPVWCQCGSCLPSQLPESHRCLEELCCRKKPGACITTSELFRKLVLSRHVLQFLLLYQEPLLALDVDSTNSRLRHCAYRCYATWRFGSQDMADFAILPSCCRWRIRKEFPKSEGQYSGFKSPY
Experimental: Intracellular Calcium Flux (FLIPR) Assay
Compound and Reagent Preparation
Stock solutions of compounds were prepared from powders as a 10 mM DMSO stock solution. These solutions were stored at RT during the two week period of these experiments to prevent freeze-thaw of the DMSO stocks. The DMSO stocks were added to the appropriate assay buffer at a concentration of 10 μM, and then diluted serially to the final concentrations that were tested. No observable precipitate was formed at any time during this process. The aqueous solutions of compounds as well as ATP (Sigma A7699) and BzATP (Sigma B6396) were prepared fresh for each day of experiment.
1321N1 cells stably expressing the full length human P2X7 gene (1321N1-hP2X7) and HEK293 cells stably expressing the full length rat P2X7 gene (HEK293-rP2X7) were obtained from the Roche Cell Culture Facility. 1321N1-hP2X7 cells were grown in Dulbecco's Modified Eagle's Medium (DMEM) high glucose supplemented with 10% FBS and […] G418. HEK293-rP2X7 cells were grown in DMEM/F-12 supplemented with 10% FBS, 1 mM CaCl2, 2 mM MgCl2, 2 mM L-Glutamine and […] G418. Cells were split such that they never became >70% confluent.
Intracellular Calcium Flux (FLIPR)
On the day prior to the experiment, 1321N1-hP2X7 or HEK293-rP2X7 cells were released into suspension with calcium-free PBS+Versene and washed by centrifugation with calcium-free PBS to remove the Versene. Cells were resuspended in growth medium at a density of 2.5×10^5 cells/mL and seeded into black walled, clear bottom 96 well plates (50,000 cells/well) approximately 18 hr prior to intracellular calcium flux experiments.
On the day of the experiment, plates were washed with FLIPR buffer (calcium- and magnesium-free Hank's Balanced Salt Solution (HBSS) supplemented with 10 mM Hepes, 2.5 mM probenecid and 2 mM calcium chloride) using a BIO-TEK 96 channel plate washer and incubated with […] fluo-3 dye at 37° C. for one hr. The dye was then removed by plate washing and the cells were allowed to equilibrate for 20 min at room temperature with antagonist or vehicle (FLIPR buffer). Agonist (100 μM BzATP final concentration for hP2X7; 5 μM BzATP final concentration or rP2X7) was added online with the FLIPR and fluorescence measurements made at 1 sec intervals for 60 sec followed by 3 sec intervals for a further 4 min (5 min total). A final addition of 5 μM ionomycin was made and the maximal BzATP-evoked fluorescence normalized to the maximal ionomycin-evoked fluorescence.

| SMILES | melting point | pIC50 (human P2X7) |
| --- | --- | --- |
| COc1cc(C)c(Nc2nnc3n2C(c2ccc(F)cc2)CSC3)cc1OC (centres unmarked) [Compound 18, (4,5-Dimethoxy-2-methyl-phenyl)-[5-(4-fluoro-phenyl)-5,6-dihydro-8H-[1,2,4]triazolo[3,4-c][1,4]thiazin-3-yl]-amine] | 165 to 166 °C | 7.58 |
| COc1cc(C)c(Nc2nnc3n2C(c2ccc(F)cc2)CS(=O)(=O)C3)cc1OC (centres unmarked) [Compound 19, (4,5-Dimethoxy-2-methyl-phenyl)-[5-(4-fluoro-phenyl)-7,7-dioxo-5,6,7,8-tetrahydro-7λ^6-[1,2,4]triazolo[3,4-c][1,4]thiazin-3-yl]-amine] | 226 to 227 °C | 6.96 |
| Cc1cc(Cl)c(OCCO)cc1Nc1nnc2n1[C@H](c1ccc(F)cc1)COC2 [Compound 21, 2-{2-Chloro-5-[(R)-5-(4-fluoro-phenyl)-5,6-dihydro-8H-[1,2,4]triazolo[3,4-c][1,4]oxazin-3-ylamino]-4-methyl-phenoxy}-ethanol] | 161 to 162 °C | 7.59 |
| Cc1cc2cnn(CCO)c2cc1Nc1nnc2n1[C@H](c1ccc(F)cc1)COC2 [Compound 39, 2-{6-[(R)-5-(4-Fluoro-phenyl)-5,6-dihydro-8H-[1,2,4]triazolo[3,4-c][1,4]oxazin-3-ylamino]-5-methyl-indazol-1-yl}-ethanol] | 215 to 217 °C | 7.605 |
| Cc1ccc(-c2ccc(=O)[nH]n2)cc1Nc1nnc2n1[C@H](c1ccc(F)cc1)COC2 [Compound 41, 6-{3-[(R)-5-(4-Fluoro-phenyl)-5,6-dihydro-8H-[1,2,4]triazolo[3,4-c][1,4]oxazin-3-ylamino]-4-methyl-phenyl}-2H-pyridazin-3-one] |  | 7.665 |
| O=c1[nH]ncc2c(Nc3nnc4n3[C@H](c3ccc(F)cc3)COC4)cccc12 [Compound 42, 5-[(R)-5-(4-Fluoro-phenyl)-5,6-dihydro-8H-[1,2,4]triazolo[3,4-c][1,4]oxazin-3-ylamino]-2H-phthalazin-1-one] |  | 6.135 |
| Cc1ccc(-c2ccn[nH]c2=O)cc1Nc1nnc2n1[C@H](c1ccc(F)cc1)COC2 [Compound 43, 4-{3-[(R)-5-(4-Fluoro-phenyl)-5,6-dihydro-8H-[1,2,4]triazolo[3,4-c][1,4]oxazin-3-ylamino]-4-methyl-phenyl}-2H-pyridazin-3-one] |  | 8.28 |
| Cc1cc(Cl)c(OCCO)cc1Nc1nnc2n1[C@H](c1cccc(F)c1)COC2 [Compound 44, 2-{2-Chloro-5-[(R)-5-(3-fluoro-phenyl)-5,6-dihydro-8H-[1,2,4]triazolo[3,4-c][1,4]oxazin-3-ylamino]-4-methyl-phenoxy}-ethanol] |  | 7.6 |
| Cc1cc(Cl)c(OCCO)cc1Nc1nnc2n1[C@H](c1ccc(F)cc1)C[S@@+]([O-])C2 [Compound 47, 2-{2-Chloro-5-[(5R,7R)-5-(4-fluoro-phenyl)-7-oxo-5,6,7,8-tetrahydro-7lambda*4*- [1,2,4]triazolo[3,4-c][1,4]thiazin-3-ylamino]-4-methyl-phenoxy}-ethanol] |  | 7.705 |
| O=c1[nH]ncc2c(Nc3nnc4n3[C@H](c3ccc(F)cc3)COC4)c(Br)ccc12 [Compound 48, 6-Bromo-5-[(R)-5-(4-fluoro-phenyl)-5,6-dihydro-8H-[1,2,4]triazolo[3,4-c][1,4]oxazin-3-ylamino]-2H-phthalazin-1-one] |  | 7.57 |
| O=c1[nH]nccc1-c1ccc(Br)c(Nc2nnc3n2[C@H](c2ccc(F)cc2)COC3)c1 [Compound 49, 4-{4-Bromo-3-[(R)-5-(4-fluoro-phenyl)-5,6-dihydro-8H-[1,2,4]triazolo[3,4-c][1,4]oxazin-3-ylamino]-phenyl}-2H-pyridazin-3-one] |  | 8.2 |
| Cc1cc(Cl)c(-n2ncccc2=O)cc1Nc1nnc2n1[C@H](c1ccc(F)cc1)COC2 [Compound 50, 2-{2-Chloro-5-[(R)-5-(4-fluoro-phenyl)-5,6-dihydro-8H-[1,2,4]triazolo[3,4-c][1,4]oxazin-3-ylamino]-4-methyl-phenyl}-2H-pyridazin-3-one] |  | 7.17 |
| Cc1ccc(-c2ccnn(C)c2=O)cc1Nc1nnc2n1[C@H](c1ccc(F)cc1)CSC2 [Compound 51, 4-{3-[(R)-5-(4-Fluoro-phenyl)-5,6-dihydro-8H-[1,2,4]triazolo[3,4-c][1,4]thiazin-3-ylamino]-4-methyl-phenyl}-2-methyl-2H-pyridazin-3-one] |  | 8.16 |
| Cc1ccc(-c2ccnn(CCO)c2=O)cc1Nc1nnc2n1[C@H](c1ccc(F)cc1)COC2 [Compound 52, 4-{3-[(R)-5-(4-Fluoro-phenyl)-5,6-dihydro-8H-[1,2,4]triazolo[3,4-c][1,4]oxazin-3-ylamino]-4-methyl-phenyl}-2-(2-hydroxy-ethyl)-2H-pyridazin-3-one] |  | 8.09 |
| O=C1NCCCN1c1ccc(Br)c(Nc2nnc3n2[C@H](c2ccc(F)cc2)COC3)c1 [Compound 54, 1-{4-Bromo-3-[(R)-5-(4-fluoro-phenyl)-5,6-dihydro-8H-[1,2,4]triazolo-[3,4-c][1,4]oxazin-3-ylamino]-phenyl}-tetrahydro-pyrimidin-2-one] |  | 7.325 |
| Cn1nccc(-c2ccc(F)c(Nc3nnc4n3[C@H](c3ccc(F)cc3)COC4)c2)c1=O [Compound 55, 4-{4-Fluoro-3-[(R)-5-(4-fluoro-phenyl)-5,6-dihydro-8H-[1,2,4]triazolo[3,4-c][1,4]oxazin-3-ylamino]-phenyl}-2-methyl-2H-pyridazin-3-one] |  | 8.035 |
